The values that follow come from US8921362B2, “6,7-dialkoxy quinazoline derivatives and methods of treating drug resistant and other tumors” (Natco Pharma Limited, priority 2008, dated 2014).

In data set [1] the test system is A549 luciferase expressing cells. Nature of the data set: Lung tissue harvested from nude mice after treatment. The class given is in vivo. The note with it: oral/ip routes, various concentrations, FIG. 4.
Data set [2] concerns A549 human lung tumors. Nature of the data set: Subcutaneous lung tumors in nude mice. The class given is in vivo. To be noted: 100 mg/Kg dose. The source says: Nude mice were implanted with 2×10^6 A549 cells in the right hind limb flank.
The test system of data set [3] is VEGFR. Nature of the data set: Down regulation of receptors, western blot in A549 cells. The class given is cell-based, human. To be noted: FIG. 8. Here is the method: (§1) Levels of Erb-1, Erb-2, Erb-3, Erb-4 and VEGFR were determined by western blot analysis.
For orientation: A western blot detects proteins with antibodies after separation by electrophoresis.

The subject of data set [4] is A549 and H1299 cells.
Procedure: Solubilization of the cells by the addition of a detergent results in the liberation of the crystals, which are solubilized. The number of surviving cells is directly proportional to the level of the formazan product created. The color can then be quantified using a simple colorimetric assay. This assay was done using 0-1000 ng/ml concentrations of Erlotinib and the test compounds in A549 and H1299 cells.
Data set [5] in a line: Acute toxicity (LD0, LD50). The class given is in vivo. The note with it: po, mice, single dose. The procedure:
[…]. The doses 500, 750, 1000 and 2000 mg/Kg were administered orally. Each group included 5 mice. […] The survived animals were autopsied for asserting the absorption of compound through g.i.t. The LD50 was determined according to the method described in Litchfield and Wilcoxon (J. Pharmacol. Exp. Ther. 1949, 96:99-113).

Data set [6] deals with ERBB4 (Homo sapiens, UniProt Q15303). Nature of the data set: Down regulation of receptors, western blot in A549 cells. The class given is cell-based. Details: endogenous in cells; host or cells: A549. To be noted: FIG. 8. Here is the method: as §1
ERBB4, sequence (Q15303 26-1308): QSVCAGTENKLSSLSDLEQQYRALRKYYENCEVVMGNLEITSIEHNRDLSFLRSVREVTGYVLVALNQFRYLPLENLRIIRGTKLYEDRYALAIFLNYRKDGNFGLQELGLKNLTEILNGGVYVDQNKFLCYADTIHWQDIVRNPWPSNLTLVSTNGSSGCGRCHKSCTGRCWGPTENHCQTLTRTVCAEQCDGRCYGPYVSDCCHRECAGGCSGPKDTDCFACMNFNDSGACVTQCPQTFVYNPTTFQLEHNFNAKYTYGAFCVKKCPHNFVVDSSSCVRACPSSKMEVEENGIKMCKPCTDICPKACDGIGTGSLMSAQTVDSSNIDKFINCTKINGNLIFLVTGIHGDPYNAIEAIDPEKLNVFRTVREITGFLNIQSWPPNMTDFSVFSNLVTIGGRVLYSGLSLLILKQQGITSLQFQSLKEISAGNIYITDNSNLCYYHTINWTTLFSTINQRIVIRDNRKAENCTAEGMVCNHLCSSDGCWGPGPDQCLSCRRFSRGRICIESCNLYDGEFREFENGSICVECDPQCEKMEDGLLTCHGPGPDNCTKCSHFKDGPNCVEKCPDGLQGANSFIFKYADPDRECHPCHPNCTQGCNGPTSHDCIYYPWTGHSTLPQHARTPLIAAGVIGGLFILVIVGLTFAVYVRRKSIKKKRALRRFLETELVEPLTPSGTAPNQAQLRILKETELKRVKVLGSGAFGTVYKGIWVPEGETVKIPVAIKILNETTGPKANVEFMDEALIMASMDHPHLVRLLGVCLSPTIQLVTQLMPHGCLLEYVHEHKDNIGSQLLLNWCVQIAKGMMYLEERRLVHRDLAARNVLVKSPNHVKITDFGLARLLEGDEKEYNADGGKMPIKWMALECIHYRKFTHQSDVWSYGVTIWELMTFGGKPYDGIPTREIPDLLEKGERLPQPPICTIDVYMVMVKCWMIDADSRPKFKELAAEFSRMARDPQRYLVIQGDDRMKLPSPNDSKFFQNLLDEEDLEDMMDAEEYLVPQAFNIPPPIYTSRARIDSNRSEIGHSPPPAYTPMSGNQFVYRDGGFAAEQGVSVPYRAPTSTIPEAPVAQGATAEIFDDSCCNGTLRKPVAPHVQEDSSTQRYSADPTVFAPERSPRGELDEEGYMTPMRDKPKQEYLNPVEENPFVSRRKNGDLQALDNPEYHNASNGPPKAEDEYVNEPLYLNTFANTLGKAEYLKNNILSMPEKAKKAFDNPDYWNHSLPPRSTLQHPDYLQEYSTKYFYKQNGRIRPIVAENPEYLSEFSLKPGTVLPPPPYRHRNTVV
Data set [7] concerns the target ERBB2 (Homo sapiens, UniProt P04626). The data set is described as above. Details: endogenous in cells; host or cells: A549. The class given is cell-based. To be noted: FIG. 8. Here is the method:
as §1

The conditions of data set [8]: po, Swiss Albino mice, suspended in 2% gum acacia.
In data set [9] the test system is H1299 and A549 cells. Nature of the data set: Matrigel invasion assay. The class given is cell-based, human. To be noted: 48 hr treatment, FIG. 2. The procedure: The in vitro invasiveness of H1299 and A549 cells in the presence of various concentrations of NRC compounds (as determined by MTT assay) was assessed using a modified Boyden chamber assay. Cells were treated with these compounds for 48 hr. 1×10^6 cells were suspended in 600 μl of serum-free medium supplemented with 0.2% BSA and placed in the upper compartment of the transwell chambers (Corning Costar Fisher Scientific cat #07-200-158, Pittsburgh Pa.) coated with matrigel (0.7 mg/ml). The lower compartment of the chamber was filled with 200 μl of serum medium and the cells were allowed to migrate for 24 hr. After incubation, the cells were fixed and stained with Hema-3 and quantified as previously described (Mohanam et al. 1993). The migrated cells were quantified as percent invasion.

The nature of data set [10]: 30 day repeated dose study. The note with it: both sexes, dog, in vivo, po, beagle dogs, orally by capsule, read-out: no observed adverse effect level (NOAEL). The procedure:
The methods followed were as per CPMP/SWP/1042/99 (July 2000) and ICH S3A (March (1995)) guidelines. Prior to the 30 day repeated dose study, a dose range finding study was conducted, which included single dose MTD study followed by a 10 day repeated dose study. For the single dose MTD study, two dogs (1 male and 1 female) of beagle breed, obtained from Marshall's Farm, China, were used. The route of dosing was oral, by gelatin capsule. Based on the results of the dose range finding study, doses for the 30 days study were selected.
The 30 day repeated dose study employed 12 male and 12 female dogs (Marshall's Farm, China). The dogs were acclimatized for a minimum period of 2 weeks and randomly divided into four main groups (G1-G4), each group comprising of 3 dogs per sex. […]
(§2) The study also tracked body weight (weekly), food consumption (daily), opthalmological status (start and end), hematological and biochemical analyses (start and end), toxicokinetics analysis of plasma (start and end). At the end of the study, all dogs were euthanized by a humane and accepted procedure, subjected to a gross post-mortem examination, organ weights (absolute and relative) were determined, and histopathological examination was carried out.

Data set [11] can be described thus: in vivo. The note with it: both, Swiss albino, mouse, po.
Data set [12] in a line: Acute oral gavage toxicity (MTD).
Procedure: (§3) 20 male and 20 female Swiss albino mice were randomly divided into four groups (G1-G4). Each group was 5 male and 5 female Swiss albino mice. […] G1 was treated with placebo and served as a control. […] The mid dose group animals (G3-treated with 500 mg/kg b.wt) were administered the dose formulation twice with a gap of approximately 1 hour. Animals from high dose group (G4-treated with 1000 mg/kg b.wt) received the dose formulation four times with a gap of approximately one hour.
The subject of data set [13] is A549 luciferase expressing cells. Nature of the data set: Nude mice implanted with A549 luciferase expressing cells. The class given is in vivo. To be noted: oral and ip routes, FIGS. 6 & 7.
A short description of data set [14]: Toxicokinetics in 30 day repeated dose study. The class given is in vivo, beagle dogs. The note with it: for Tmax: beagle, dog, plasma, po, read-out: median Tmax. The procedure: The 30 day repeated dose study employed 12 male and 12 female dogs (Marshall's Farm, China). The dogs were acclimatized for a minimum period of 2 weeks and randomly divided into four main groups (G1-G4), each group comprising of 3 dogs per sex. The animals were dosed orally with capsules of NRC-2694A for a period of 30 consecutive days at dose levels of 10 mg/kg b.wt/day (G2-low dose), 20 mg/kg b.wt/day (G3-mid dose) and 40 mg/kg b. wt/day (G4-high dose). […] The control group (G1-0 mg/kg b. wt/day) animals were dosed by oral capsule with placebo.
as §2
The toxicokinetic parameters viz.

Data set [15] is described as follows: Acute oral gavage toxicity (MTD). To be noted: G4, 1000 mg/kg body wt., rats.
Data set [16] concerns Salmonella typhimurium (TA 98, TA 100, TA 102, TA 1535 and TA 1537). Nature of the data set: Ames bacterial reverse mutation assay. To be noted: 0.0125-1.2500 mg/plate, with and without S9. The class given is cell-based. The procedure: The present study was conducted by the direct plate incorporation method with five tester strains of Salmonella typhimurium (TA 98, TA 100, TA 102, TA 1535 and TA 1537). […] Simultaneously, negative control cultures received DMSO and the respective positive controls received the mutagens 2-Amino anthracene, 2-Nitrofluorene, Sodium azide, 9-Aminoacridine and Mitomycin C (Sigma, St. Louis). In order to study the role of metabolic activation, cultures were incubated both with and without S9 mixture. The induction of Histidine positive colonies was computed and results were statistically treated for comparison.

Data set [17] in a line: Functional observational battery (FOB). The class given is in vivo, Wistar rats. To be noted: 75, 125 and 250 mg/kg b.wt single oral dose, 60-120 min post treatment. Here is the method:
The study was conducted in accordance with “[…] Safety Pharmacology Studies for Human Pharmaceuticals, ICH” July 2001, and as per this study protocol. […] Rats that had been fasted for 16 to 18 hours (access to water was not interrupted) were dosed with the compound or water. The rats were administered the compound in an aqueous formulation at three levels, 75, 125 and 250 mg/kg b.wt, as a single oral dose by gavage. The control group received water. The rats were subjected to the FOB 60-120 min. after drug administration.
Animals were subjected to the FOB one at a time except for the multiple activity cage where four animals were placed in four different cages simultaneously. Once complete, the animals were returned to their home cage and the cage placed back on the stand.

A short description of data set [18]: in vivo. To be noted: both, Swiss albino, mouse, po. This is another data set of the same source.
Procedure: as §3
Data set [19] is described as follows: Cardiovascular parameters in telemetered dogs. The note with it: male Beagle dogs. The class given is in vivo. Here is the method: The study was conducted in accordance with ICH “S7A Safety Pharmacology Studies for Human Pharmaceuticals, Note for Guidance on Safety Pharmacology Studies for Human Pharmaceuticals, July 2001”. The doses tested were 0, 15, 30 and 60 mg/kg b.wt. given orally by gelatin capsule. Four male Beagle dogs, each implanted with a TL1IM2-D70-PCT transmitter (Data Sciences International, USA), were used for the study. During the study, the dogs were administered 4 oral treatments representing placebo and all test substance treatment groups with a three day (˜72 hour) wash-out period between each administration, using a Latin square cross-over design.
On dosing days, the telemetered dogs were observed once before commencement of data collection, continuously through 2 hours post-dose remotely and ˜8 hours post-dose for changes in behaviour. Cardiovascular parameters (systolic, diastolic and mean blood pressure, pulse pressure and heart rate) were recorded continuously for ˜60 minutes before dosing and up to 24 hours after dosing. Systolic, diastolic and mean blood pressures, pulse pressure and heart rate were obtained from the femoral artery waveform. Electrocardiograms were recorded continuously for ˜60 minutes before dosing and up to 24 hours after dosing. […] Heart rate and QT intervals were determined from the ECG's.

A short description of data set [20]: Respiratory function, whole body plethysmograph. The class given is in vivo, Wistar rats. To be noted: 75, 125 and 250 mg/kg body weight, oral, 3 hours. The procedure:
This study evaluated the effect of NRC-2694A monohydrochloride on respiratory function in conscious Wistar rats following administration of a single dose using a whole body plethysmograph. The study was conducted in accordance with “S7A Safety Pharmacology Studies for Human Pharmaceuticals, ICH” issued July 2001. The study used a parallel design with one vehicle and three test item treated groups. […] Male Wistar rats were placed in plethysmography chambers and baseline respiratory parameters were recorded for 30 minutes. Following drug administration respiratory parameters were recorded continuously for 3 hours.

Molecules are shown by their SMILES. Where a name gives a salt, the structure may show the parent alone. Read-outs that look alike come from different tables or passages of the source.

ERBB2, sequence (P04626 23-1255): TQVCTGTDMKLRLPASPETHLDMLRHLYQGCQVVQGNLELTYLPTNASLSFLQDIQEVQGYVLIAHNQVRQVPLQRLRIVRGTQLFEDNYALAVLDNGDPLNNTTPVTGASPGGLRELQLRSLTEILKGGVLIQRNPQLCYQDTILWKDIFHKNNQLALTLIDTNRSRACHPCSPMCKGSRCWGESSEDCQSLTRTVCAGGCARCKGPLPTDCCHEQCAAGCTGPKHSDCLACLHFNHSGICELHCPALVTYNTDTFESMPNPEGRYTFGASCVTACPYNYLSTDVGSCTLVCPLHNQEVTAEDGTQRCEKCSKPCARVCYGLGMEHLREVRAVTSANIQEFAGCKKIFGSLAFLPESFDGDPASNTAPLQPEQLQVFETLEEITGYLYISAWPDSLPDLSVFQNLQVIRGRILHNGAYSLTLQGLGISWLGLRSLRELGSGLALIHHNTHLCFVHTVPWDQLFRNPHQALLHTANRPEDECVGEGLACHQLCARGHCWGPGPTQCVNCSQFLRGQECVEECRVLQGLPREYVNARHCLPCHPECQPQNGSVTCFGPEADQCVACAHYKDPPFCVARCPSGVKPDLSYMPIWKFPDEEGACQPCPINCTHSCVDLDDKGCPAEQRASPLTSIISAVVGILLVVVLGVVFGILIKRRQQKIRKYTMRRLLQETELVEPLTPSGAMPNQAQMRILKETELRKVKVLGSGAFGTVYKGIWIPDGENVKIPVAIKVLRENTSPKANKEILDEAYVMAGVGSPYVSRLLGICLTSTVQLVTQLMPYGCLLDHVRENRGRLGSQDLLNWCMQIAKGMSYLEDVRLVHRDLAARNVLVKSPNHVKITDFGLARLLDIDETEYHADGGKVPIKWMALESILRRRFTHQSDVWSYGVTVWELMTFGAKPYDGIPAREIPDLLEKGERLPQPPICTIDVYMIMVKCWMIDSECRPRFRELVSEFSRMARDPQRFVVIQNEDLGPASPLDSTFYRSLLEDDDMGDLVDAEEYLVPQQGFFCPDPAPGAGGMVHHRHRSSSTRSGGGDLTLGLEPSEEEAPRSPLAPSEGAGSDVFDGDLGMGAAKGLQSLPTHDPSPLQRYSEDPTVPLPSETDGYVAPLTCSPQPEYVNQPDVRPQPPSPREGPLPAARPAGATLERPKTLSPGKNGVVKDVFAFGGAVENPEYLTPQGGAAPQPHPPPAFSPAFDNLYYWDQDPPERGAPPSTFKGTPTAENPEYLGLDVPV

In general, IC50 refers to the concentration needed to halve the response being measured. A low value points to higher potency. For orientation: LD50 means the dose at which mortality reaches 50%. High values mean a less toxic substance, low ones a more toxic substance. By NOAEL is commonly meant the highest dose or exposure tested at which no adverse effect was seen. With `C#Cc1cccc(Nc2ncnc3cc(OCCOC)c(OCCOC)cc23)c1` [Erlotinib HCl, N-(3-Ethylnylphenyl)-6,7-bis(2-methoxyethoxy)-4-quinazolinamine], the “residual tumors in harvested lungs” value in [1] is “tumors were still present”. The tumor regression entry in data set [2] was “tumors were still present”. The VEGFR levels entry in data set [3] was “no such indication was seen”. In data set [4], this compound returned an IC50 of 0.836 µg/mL. The LD50 at 14 days in data set [5] (both sexes, mouse, in vivo) was found to be 805 mg/kg. In addition, in data set [5] (no mortality at end of 7 days), the LD0 was 500 mg/kg. The “Erb B4 levels” value in [6] is listed as “no such indication was seen”. In data set [7], the “Erb B2 levels” value is “no such indication was seen”. Moreover, the MTD in data set [8] is 500 mg/kg. Moreover, the invasion entry in data set [9] was “dose dependent decrease in invasion”. Moreover, the NOAEL at 30 days in data set [10] came to 5 mg/kg/day. The compound further returned an MTD at 72 h in data set [11] of 500 mg/kg. The compound further returned an MTD at 14 days in data set [12] (both, Swiss albino, mouse, in vivo, po) of 500 mg/kg. In data set [13], the “tumors at the end of 42 days treatment” value was “residual tumors were still present”.

The Tmax is the time at which the peak concentration occurs. Turning to `C#Cc1cccc(Nc2ncnc3cc(OC)c(OCCCN4CCOCC4)cc23)c1.Cl` [NRC-2694 monohydrochloride, N-(3-ethynylphenyl)-7-methoxy-6-[3-(4-morpholinyl)propoxy]-4-quinazolinamine mono hydrochloride], the Tmax is 2 h in data set [14] (day 1, female, 10 mg/kg); 4 h in data set [14] (day 1, female, 40 mg/kg); 2 h in data set [14] (day 1, male, 10 mg/kg); 3 h in data set [14] (day 1, male, 20 mg/kg); 2 h in [14] (day 1, male, 40 mg/kg); 4 h in [14] (day 30, female, 20 mg/kg). Moreover, the Cmax result in [14] (three dose levels, male and female dogs) is on record as “dose-dependent change in the Cmax”. Also, the “chromodacryoorhea (animals affected)” value in data set [15] is recorded as 10/10. For the same compound, the “mild to severe lethargy (animals affected)” value in [15] is on record as 10/10. In addition, the “piloerection (animals affected)” value in data set [15] is reported as 10/10. For the same compound, in data set [15], the “ptosis (animals affected)” value is given as 4/10. Also, the “weakness (animals affected)” value in [15] is reported as 1/10. Further, the NOAEL at 30 days in [10] was 10 mg/kg/day. Also, the “mutagenicity (His revertant colonies)” value in data set [16] is “non-mutagenic”. Besides, the functional observational battery result in data set [17] is given as “did not show any adverse effects at the tested doses”. This compound also had an MTD at 14 days in data set [18] of 1000 mg/kg. Besides, in [19] (15, 30 and 60 mg/kg b.wt. oral), the “cardiovascular parameters (blood pressure, pulse pressure, heart rate, QT, QTcf)” value is “no significant negative effects on cardiovascular parameters”. Besides, the “no observed effect level” value in data set [19] (cardiovascular parameters, oral) is 60 mg/kg b.wt. In addition, in data set [20], the “respiratory rate, tidal volume, minute volume, and Penh” value is reported as “did not influence any of the observed parameters”. Besides, the “toxic signs or mortality” value in [12] (250 mg/kg and 500 mg/kg, oral gavage, mice) is recorded as “did not produce any toxic signs or mortality”.
